Test results reported in patent US20250100996A1, “HETEROCYCLOALKYL AND HETEROARYL COMPOUNDS AND PHARMACEUTICAL COMPOSITIONS THAT MODULATE IKZF2” (Plexium, Inc., priority 2021, published 2025).

Tests used:
IKZF1 (Ikaros) = target: T1, IKZF1 (Ikaros) (Homo sapiens, UniProt Q13422); experiment: IKZF1 reporter degradation assay (HEK 293T IKZF1-mNeonGreen reporter cell line); format: cell-based; details: HEK 293T IKZF1-mNeonGreen reporter, 24 hours incubation
T1 construct: mScarlet (behind P2A) (C, cleaved yes); expressed in transfected cells
Method in brief: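 Degradation is measured as loss of mNeonGreen fused C-terminally to each human IKZF protein in clonal HEK 293T cells, with co-expressed mScarlet as reference. Treatment lasts 24 h at 37 °C. DC50 is derived by logistic fitting of percent positive cells.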

GSPT1 = target: T2, GSPT1 (Homo sapiens, UniProt P15170); experiment: GSPT1 reporter degradation assay (HEK293 hGSPT1 HiBiT-tagged cells); format: cell-based; details: 24 hour incubation
T2 construct: HiBiT-tagged cells were generated using CRISPR-Cas12a technology; endogenous in cells; host or cells: HEK293 (endogenous GSPT1 locus edited with HiBiT knock-in)
Method: HEK293_hGSPTl_HiBiT-tagged cells were generated using CRISPR-Cas12a technology. Briefly, ˜400,000 HEK293 cells were transiently co-transfected with precomplexed ribonuclear proteins (RNPs) consisting of 80 pmol of crRNA (IDT), 62 pmol of Cas12a protein (IDT), 3 μg of ssODN donor (IDT; Alt® modifications), 78 pmol of electroporation enhancer (IDT), and 200 ng of pMaxGFP (Lonza). The transfection was performed via nucleofection (Lonza, 4D-Nucleofector X-unit) using solution P3 and program CM-130 in a ([…]) cuvette. Five days post-nucleofection, cells were single-cell-sorted for GFP+(transfected) cells by FACs in 96-well plates and clonally selected. Clones were screened and verified for the desired modification via targeted deep sequencing using gene-specific primers with partial Illumina adapter overhangs as previously described. In brief, clonal cell pellets were harvested, lysed, and used to generate gene-specific amplicons with partial Illumina adapters in PCR #1. Amplicons were indexed in PCR #2 and pooled with other targeted amplicons for other loci to create sequence diversity. Additionally, 10% PhiX sequencing control V3 (Illumina) was added to the pooled amplicon library prior to running the sample on a Miseq Sequencer System (Illumina) to generate paired 2×250 bp reads. Samples were demultiplexed using the index sequences, fastq files were generated, and NGS analysis was performed using CRIS.py. Final clones were authenticated using the PowerPlex fusion system (Promega) and tested negative for mycoplasma by the MycoAlertTMPlus mycoplasma detection kit (Lonza).
Editing construct sequences and screening primers are outlined below (sequence from 5′ to 3′). hGSPT1Cas12acrRNA, CAGE635.GSPT1.g1: […]; CAGE635.g1.anti.ssODN: ttcctcacagtattgtgcagggtcatcaagaaaatgctta[…] CAGCCGCTCACgtcCttctctggaaccagtttcagaacttttccaattgcaatggtcttacctagaaatgaaattttaa (HiBiT tag and silent blocking modifications to prevent Cas12a recutting after integration are in upper case); CAGE635.hGSPT1.DS.F: […]; CAGE635.hGSPT1.DS.R: GTGAA GTAGGCTTCTGCAGTC.
The GSPT1 degradation assay was carried out by harvesting the HEK 293T reporter cell lines and resuspending the cells in media formulated for reduced background fluorescence (FluoroBrite; Thermo Fisher). The respective cell lines were seeded at a density of 8,000 cells/well into white-opaque 384-well optical grade assay tissue culture plates (Greiner 781080-20). The cells were incubated overnight at 37° C. to allow for attachment to the assay plate. Dilutions of the compounds were prepared in DMSO from 10 mM compound stocks. Test compounds were added in a 10-point dilution series (typically 10 μM to 100 pM) using a TECAN D300e Digital Dispenser with an upper limit of 0.5% final DMSO. Plates were centrifuged at 320×g for 2 minutes at room temperature, and subsequently incubated at 37° C.
After 24 hour incubation with the compounds, the plates were allowed to cool to room temperature for 10 minutes. 30 μL of HiBiT lytic buffer+1:50 HiBiT substrate Solution were added to each well. Plates were centrifuged at 320×g for 2 minutes at room temperature and then incubated with shaking at room temperature for 10 minutes covered with foil. Plates were read on a CLARIOstar microplate reader (BMG LabTech), measuring at 450 nm (donor emission) and 610 nm or 630 nm (acceptor emission). The DC50 values were determined by regression to best fit four-parameter logistic curves using GraphPad Prism.

T2 sequence (Q96SW2 whole entry partner): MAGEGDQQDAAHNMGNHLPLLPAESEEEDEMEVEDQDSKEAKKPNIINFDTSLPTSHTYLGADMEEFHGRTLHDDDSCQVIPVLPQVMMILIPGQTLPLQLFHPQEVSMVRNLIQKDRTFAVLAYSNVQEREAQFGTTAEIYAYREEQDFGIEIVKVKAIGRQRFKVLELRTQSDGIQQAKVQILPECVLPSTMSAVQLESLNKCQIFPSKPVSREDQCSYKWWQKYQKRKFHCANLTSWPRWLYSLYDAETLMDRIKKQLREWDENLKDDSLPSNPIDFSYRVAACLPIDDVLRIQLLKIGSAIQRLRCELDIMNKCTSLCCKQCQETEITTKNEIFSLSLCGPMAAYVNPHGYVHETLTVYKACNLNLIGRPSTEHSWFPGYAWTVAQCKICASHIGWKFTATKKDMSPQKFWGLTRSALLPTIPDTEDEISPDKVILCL
T2 sequence (Q16531 whole entry partner): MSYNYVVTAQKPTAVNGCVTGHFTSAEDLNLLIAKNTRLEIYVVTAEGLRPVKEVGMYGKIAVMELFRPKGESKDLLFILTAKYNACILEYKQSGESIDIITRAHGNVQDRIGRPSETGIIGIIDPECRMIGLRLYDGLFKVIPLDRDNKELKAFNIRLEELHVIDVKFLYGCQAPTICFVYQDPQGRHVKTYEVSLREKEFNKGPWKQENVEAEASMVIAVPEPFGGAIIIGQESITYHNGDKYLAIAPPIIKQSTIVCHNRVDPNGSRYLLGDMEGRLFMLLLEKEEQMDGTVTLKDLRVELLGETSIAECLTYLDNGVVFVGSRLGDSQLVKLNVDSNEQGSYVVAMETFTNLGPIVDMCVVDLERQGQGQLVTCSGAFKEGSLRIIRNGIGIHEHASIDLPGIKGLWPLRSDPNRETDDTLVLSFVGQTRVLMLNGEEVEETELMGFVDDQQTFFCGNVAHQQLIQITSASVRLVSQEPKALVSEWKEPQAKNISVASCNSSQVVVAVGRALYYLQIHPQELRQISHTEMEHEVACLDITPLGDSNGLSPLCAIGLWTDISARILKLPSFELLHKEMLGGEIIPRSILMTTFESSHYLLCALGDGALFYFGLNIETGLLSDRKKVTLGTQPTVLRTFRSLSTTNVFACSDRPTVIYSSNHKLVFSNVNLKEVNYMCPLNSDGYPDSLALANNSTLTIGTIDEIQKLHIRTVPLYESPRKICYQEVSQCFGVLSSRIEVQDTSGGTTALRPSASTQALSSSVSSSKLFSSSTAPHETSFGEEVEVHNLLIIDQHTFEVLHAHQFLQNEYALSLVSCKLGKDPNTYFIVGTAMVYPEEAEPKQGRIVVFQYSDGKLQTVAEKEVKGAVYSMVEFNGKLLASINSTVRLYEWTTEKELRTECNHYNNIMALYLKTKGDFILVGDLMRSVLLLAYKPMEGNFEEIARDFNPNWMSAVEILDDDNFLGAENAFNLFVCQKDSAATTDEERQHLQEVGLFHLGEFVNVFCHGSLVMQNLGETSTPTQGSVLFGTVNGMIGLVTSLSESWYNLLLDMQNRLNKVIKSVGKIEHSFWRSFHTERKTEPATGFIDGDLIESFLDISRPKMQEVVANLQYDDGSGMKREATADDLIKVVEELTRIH
T2 sequence (P15170 whole entry): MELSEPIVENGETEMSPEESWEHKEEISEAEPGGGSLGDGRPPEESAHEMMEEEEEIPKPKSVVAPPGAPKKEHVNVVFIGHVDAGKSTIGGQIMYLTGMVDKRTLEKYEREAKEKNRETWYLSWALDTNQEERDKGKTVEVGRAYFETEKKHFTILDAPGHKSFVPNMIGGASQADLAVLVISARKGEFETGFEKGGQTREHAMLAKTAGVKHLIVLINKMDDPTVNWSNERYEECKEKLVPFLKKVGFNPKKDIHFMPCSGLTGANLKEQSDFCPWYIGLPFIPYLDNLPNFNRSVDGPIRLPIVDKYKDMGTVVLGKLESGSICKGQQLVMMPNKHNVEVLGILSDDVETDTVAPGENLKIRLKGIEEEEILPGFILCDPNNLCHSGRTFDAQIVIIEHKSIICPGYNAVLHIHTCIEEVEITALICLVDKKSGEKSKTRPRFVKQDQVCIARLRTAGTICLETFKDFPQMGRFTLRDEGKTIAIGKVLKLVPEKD
T1 sequence (Q96SW2 whole entry partner): as the sequence (Q96SW2 whole entry partner) above
T1 sequence (Q16531 whole entry partner): as the sequence (Q16531 whole entry partner) above
T1 sequence (Q13422 whole entry): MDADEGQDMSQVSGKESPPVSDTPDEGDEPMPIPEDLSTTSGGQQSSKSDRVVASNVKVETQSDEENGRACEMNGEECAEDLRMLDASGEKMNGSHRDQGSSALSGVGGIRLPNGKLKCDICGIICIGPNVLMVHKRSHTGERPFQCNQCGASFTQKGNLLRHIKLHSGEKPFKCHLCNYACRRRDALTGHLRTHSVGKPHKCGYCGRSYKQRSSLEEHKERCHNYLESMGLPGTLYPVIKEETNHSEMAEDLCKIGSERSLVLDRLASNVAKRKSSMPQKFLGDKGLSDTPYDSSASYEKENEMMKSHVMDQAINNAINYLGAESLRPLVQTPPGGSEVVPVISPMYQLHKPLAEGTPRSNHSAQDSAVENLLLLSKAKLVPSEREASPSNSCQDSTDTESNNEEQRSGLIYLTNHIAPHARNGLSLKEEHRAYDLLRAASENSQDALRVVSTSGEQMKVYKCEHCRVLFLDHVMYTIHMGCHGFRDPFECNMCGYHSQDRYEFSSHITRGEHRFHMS

Row | SMILES | DC50 (IKZF1 (Ikaros)) [µM] | DC50 (GSPT1) [µM]
1 | O=C1CCC(N2Cc3cc(O[C@H]4CCCC[C@@H]4N4CC(c5ccc6cccnc6c5)C4)ccc3C2=O)C(=O)N1 (stereo partly drawn) [Compound 87-B, 3-(1-oxo-5-(((1S,2S)-2-(3-(quinolin-7-yl)azetidin-1-yl)cyclohexyl)oxy)isoindolin-2-yl)piperidine-2,6-dione] | > 30 | > 30
2 | O=C1CCC(N2Cc3cc(O[C@H]4CCCC[C@@H]4N4CC(C5CCOC5)C4)ccc3C2=O)C(=O)N1 (stereo partly drawn) [Compound 14-A, 3-(1-oxo-5-(((1S,2S)-2-(3-(tetrahydrofuran-3-yl)azetidin-1-yl)cyclohexyl)oxy)isoindolin-2-yl)piperidine-2,6-dione] | > 30 | > 30
3 | N#CC1(C(=O)N2CCC(C3CN([C@H]4CCCC[C@@H]4Oc4ccc5c(c4)CN(C4CCC(=O)NC4=O)C5=O)C3)CC2)CC1 (stereo partly drawn) [Compound 27-A, 1-(4-(1-((1S,2S)-2-((2-(2,6-dioxopiperidin-3-yl)-1-oxoisoindolin-5-yl)oxy)cyclohexyl)azetidin-3-yl)piperidine-1-carbonyl)cyclopropane-1-carbonitrile] | ≥ 30 | > 30
4 | O=C1CCC(N2Cc3cc(O[C@H]4CCCC[C@@H]4N4CC(C5CCN(S(=O)(=O)C6CCC6)CC5)C4)ccc3C2=O)C(=O)N1 (stereo partly drawn) [Compound 57-A, 3-(5-(((1S,2S)-2-(3-(1-(cyclobutylsulfonyl)piperidin-4-yl)azetidin-1-yl)cyclohexyl)oxy)-1-oxoisoindolin-2-yl)piperidine-2,6-dione] | > 30 | > 30
5 | O=C1CCC(N2Cc3cc(O[C@H]4CCCC[C@@H]4N4CC(C5CCOCC5F)C4)ccc3C2=O)C(=O)N1 (stereo partly drawn) [Compound 55-A, 3-(5-(((1S,2S)-2-(3-(3-fluorotetrahydro-2H-pyran-4-yl)azetidin-1-yl)cyclohexyl)oxy)-1-oxoisoindolin-2-yl)piperidine-2,6-dione] | > 30 | > 30
6 | N#CC1(C(=O)N2CCC(C3CN([C@H]4CCCC[C@@H]4Oc4ccc5c(c4)CN(C4CCC(=O)NC4=O)C5=O)C3)CC2)CCC1 (stereo partly drawn) [Compound 30-A, 1-(4-(1-((1S,2S)-2-((2-(2,6-dioxopiperidin-3-yl)-1-oxoisoindolin-5-yl)oxy)cyclohexyl)azetidin-3-yl)piperidine-1-carbonyl)cyclobutane-1-carbonitrile] | > 30 | > 30
7 | CC1(C(=O)N2CCC(C3CN([C@H]4CCCC[C@@H]4Oc4ccc5c(c4)CN(C4CCC(=O)NC4=O)C5=O)C3)CC2)CCCC1 (stereo partly drawn) [Compound 33-A, 3-(5-(((1S,2S)-2-(3-(1-(1-methylcyclopentane-1-carbonyl)piperidin-4-yl)azetidin-1-yl)cyclohexyl)oxy)-1-oxoisoindolin-2-yl)piperidine-2,6-dione] | > 30 | > 30
8 | CC1CC1C(=O)N1CCC(C2CN([C@H]3CCCC[C@@H]3Oc3ccc4c(c3)CN(C3CCC(=O)NC3=O)C4=O)C2)CC1 (stereo partly drawn) [Compound 35-A, 3-(5-(((1S,2S)-2-(3-(1-(2-methylcyclopropane-1-carbonyl)piperidin-4-yl)azetidin-1-yl)cyclohexyl)oxy)-1-oxoisoindolin-2-yl)piperidine-2,6-dione] | > 30 | > 30
9 | O=C1CCC(N2Cc3cc(O[C@H]4CCCC[C@@H]4N4CC(C5CCN(C(=O)CC6CC6)CC5)C4)ccc3C2=O)C(=O)N1 (stereo partly drawn) [Compound 34-A, 3-(5-(((1S,2S)-2-(3-(1-(2-cyclopropylacetyl)piperidin-4-yl)azetidin-1-yl)cyclohexyl)oxy)-1-oxoisoindolin-2-yl)piperidine-2,6-dione] | > 30 | > 30
10 | CC12CC(C(=O)N3CCC(C4CN([C@H]5CCCC[C@@H]5Oc5ccc6c(c5)CN(C5CCC(=O)NC5=O)C6=O)C4)CC3)(C1)C2 (stereo partly drawn) [Compound 28-A, 3-(5-(((1S,2S)-2-(3-(1-(3-methylbicyclo[1.1.1]pentane-1-carbonyl)piperidin-4-yl)azetidin-1-yl)cyclohexyl)oxy)-1-oxoisoindolin-2-yl)piperidine-2,6-dione] | > 30 | > 30
11 | O=C1CCC(N2Cc3cc(O[C@H]4CCCC[C@@H]4N4CC(C5CCN(C(=O)C6CC(F)(F)C6)CC5)C4)ccc3C2=O)C(=O)N1 (stereo partly drawn) [Compound 32-A, 3-(5-(((1S,2S)-2-(3-(1-(3,3-difluorocyclobutane-1-carbonyl)piperidin-4-yl)azetidin-1-yl)cyclohexyl)oxy)-1-oxoisoindolin-2-yl)piperidine-2,6-dione] | > 30 | > 30
12 | CC1(C(=O)N2CCC(C3CN([C@H]4CCCC[C@@H]4Oc4ccc5c(c4)CN(C4CCC(=O)NC4=O)C5=O)C3)CC2)CC1 (stereo partly drawn) [Compound 31-A, 3-(5-(((1S,2S)-2-(3-(1-(1-methylcyclopropane-1-carbonyl)piperidin-4-yl)azetidin-1-yl)cyclohexyl)oxy)-1-oxoisoindolin-2-yl)piperidine-2,6-dione] | > 30 | > 30
13 | O=C1CCC(N2Cc3cc(O[C@H]4CCCC[C@@H]4N4CC(C5CCN(C(=O)C6(F)CC6)CC5)C4)ccc3C2=O)C(=O)N1 (stereo partly drawn) [Compound 42-A, 3-(5-(((1S,2S)-2-(3-(1-(1-fluorocyclopropane-1-carbonyl)piperidin-4-yl)azetidin-1-yl)cyclohexyl)oxy)-1-oxoisoindolin-2-yl)piperidine-2,6-dione] | > 30 | > 30
14 | CC1(C(=O)N2CCC(C3CN([C@H]4CCCC[C@@H]4Oc4ccc5c(c4)CN(C4CCC(=O)NC4=O)C5=O)C3)CC2)COC1 (stereo partly drawn) [Compound 29-A, 3-(5-(((1S,2S)-2-(3-(1-(3-methyloxetane-3-carbonyl)piperidin-4-yl)azetidin-1-yl)cyclohexyl)oxy)-1-oxoisoindolin-2-yl)piperidine-2,6-dione] | > 30 | > 30
